Source: publication PMC7785020, “A unique hormonal recognition feature of the human glucagon-like peptide-2 receptor” (Cell Research, 2020)
Positions count from the first letter of the chain named.

Columns and labels:
[1] = biological target: T1, GLP-2R H268^3.37A (Homo sapiens, UniProt O95838, H268A); assay: radioligand competition binding, H268^3.37A; parameters: WT (1–553); expressed in transfected cells; settings: COS-7, H268^3.37A; [^125I]GLP-2(1–33, M10Y) 10–15 pM, 4 h, 4 °C; mean ± SEM, n ≥ 3 in duplicate
T1 sequence (O95838 1-553 H268A): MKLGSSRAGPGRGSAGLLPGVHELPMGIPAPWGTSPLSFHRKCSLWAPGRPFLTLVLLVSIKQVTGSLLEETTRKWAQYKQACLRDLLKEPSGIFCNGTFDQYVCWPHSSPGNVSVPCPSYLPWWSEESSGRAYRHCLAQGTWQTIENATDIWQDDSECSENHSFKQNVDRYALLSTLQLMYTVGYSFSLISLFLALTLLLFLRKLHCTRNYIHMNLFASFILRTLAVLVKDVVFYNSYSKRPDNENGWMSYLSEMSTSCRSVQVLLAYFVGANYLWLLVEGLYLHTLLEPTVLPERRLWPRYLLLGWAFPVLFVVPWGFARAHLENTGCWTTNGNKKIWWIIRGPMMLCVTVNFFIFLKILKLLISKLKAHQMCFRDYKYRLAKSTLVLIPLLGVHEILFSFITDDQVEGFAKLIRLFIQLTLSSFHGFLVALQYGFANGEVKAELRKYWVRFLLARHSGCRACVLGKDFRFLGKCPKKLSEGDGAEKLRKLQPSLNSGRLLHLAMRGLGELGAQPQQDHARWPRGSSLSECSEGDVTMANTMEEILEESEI
Method: (§1) A stepwise oxidation reaction was performed by addition of 6 aliquots of 5 µL ChloramineT (30 µL/mL) with a 1-min interval during constant stirring. The reaction was terminated by the addition of 400 µL phase A (0.1% trifluoracetic acid) before being fractionated into 1 mL volume by reverse-phase high-performance liquid chromatography (RP-HPLC, Waters 600 SimiPrep system) on a C18 column. The iodinated protein was […] by increasing concentrations of phase B (Acetonitrile + 0.1% TFA) and tested for competitive binding ability.
(§2) One day before transfection, the COS-7 cells were seeded in 75 cm^2 culture flasks (3 million cells/flask) in DMEM, containing 3.9 g/L NaHCO3 and supplemented with 10% FBS, 1% L-glutamine, 180 units/mL penicillin and 45 µg/mL streptomycin. After an overnight culture at 37 °C, 10% CO2 and 95% air humidity, the cells were transiently transfected with different GLP-2R constructs or pcDNA3.1 vector as previously described.[52] Following 24-h incubation, the cells were transferred to Costa® microtiter plates (150,000 cells/well, PerkinElmer) to achieve a 5%–10% specific binding. […] The cells were then washed twice in binding buffer (4 °C), lysed and counted for radioactivity using a Wallac Gamma Counter (PerkinElmer).

[2] = biological target: T2, GLP-2R D244^ECL1A (Homo sapiens, UniProt O95838, D244A); assay: radioligand competition binding, D244^ECL1A; parameters: WT (1–553); expressed in transfected cells; settings: COS-7, D244^ECL1A; [^125I]GLP-2(1–33, M10Y) 10–15 pM, 4 h, 4 °C; mean ± SEM, n ≥ 3 in duplicate
T2 sequence (O95838 1-553 D244A): T1 sequence (O95838 1-553 H268A) with D244A, A268H
Method: as §1, §2

[3] = biological target: T3, GLP-2R K414^7.35A (Homo sapiens, UniProt O95838, K414A); assay: radioligand competition binding, K414^7.35A; parameters: WT (1–553); expressed in transfected cells; host or cells: COS-7; settings: COS-7, K414^7.35 A; [^125I]GLP-2(1–33, M10Y) 10–15 pM, 4 h, 4 °C; mean ± SEM, n ≥ 3 in duplicate
T3 sequence (O95838 1-553 K414A): T1 sequence (O95838 1-553 H268A) with A268H, K414A
Method: as §1, §2

Structure (SMILES)	% Binding of WT [1]	% Binding of WT [2]	% Binding of WT [3]
CC[C@H](C)[C@H](NC(=O)[C@H](Cc1ccccc1)NC(=O)[C@H](CC(=O)O)NC(=O)[C@H](CCCNC(=N)N)NC(=O)[C@H](C)NC(=O)[C@H](C)NC(=O)[C@H](CC(C)C)NC(=O)[C@H](CC(N)=O)NC(=O)[C@H](CC(=O)O)NC(=O)[C@H](CC(C)C)NC(=O)[C@@H](NC(=O)[C@@H](NC(=O)[C@H](CC(N)=O)NC(=O)[C@H](CCSC)NC(=O)[C@H](CCC(=O)O)NC(=O)[C@H](CC(=O)O)NC(=O)[C@H](CO)NC(=O)[C@H](Cc1ccccc1)NC(=O)[C@H](CO)NC(=O)CNC(=O)[C@H](CC(=O)O)NC(=O)CNC(=O)[C@@H](N)Cc1c[nH]cn1)[C@@H](C)O)[C@@H](C)CC)C(=O)N[C@@H](CC(N)=O)C(=O)N[C@@H](Cc1c[nH]c2ccccc12)C(=O)N[C@@H](CC(C)C)C(=O)N[C@H](C(=O)N[C@@H](CCC(N)=O)C(=O)N[C@H](C(=O)N[C@@H](CCCCN)C(=O)N[C@H](C(=O)N[C@H](C(=O)N[C@@H](CC(=O)O)C(=O)O)[C@@H](C)O)[C@@H](C)CC)[C@@H](C)O)[C@@H](C)CC [Teduglutide]	0.7 ± 1.8 %	77.5 ± 5.7 %	13.9 ± 0.8 %
CC[C@H](C)[C@H](NC(=O)[C@H](Cc1ccccc1)NC(=O)[C@H](CC(=O)O)NC(=O)[C@H](CCCNC(=N)N)NC(=O)[C@H](C)NC(=O)[C@H](C)NC(=O)[C@H](CC(C)C)NC(=O)[C@H](CC(N)=O)NC(=O)[C@H](CC(=O)O)NC(=O)[C@H](CC(C)C)NC(=O)[C@@H](NC(=O)[C@@H](NC(=O)[C@H](CC(N)=O)NC(=O)[C@H](CCSC)NC(=O)[C@H](CCC(=O)O)NC(=O)[C@H](CC(=O)O)NC(=O)[C@H](CO)NC(=O)[C@H](Cc1ccccc1)NC(=O)[C@H](CO)NC(=O)CNC(=O)[C@H](CC(=O)O)NC(=O)[C@H](C)NC(=O)[C@@H](N)Cc1c[nH]cn1)[C@@H](C)O)[C@@H](C)CC)C(=O)N[C@@H](CC(N)=O)C(=O)N[C@@H](Cc1c[nH]c2ccccc12)C(=O)N[C@@H](CC(C)C)C(=O)N[C@H](C(=O)N[C@@H](CCC(N)=O)C(=O)N[C@H](C(=O)N[C@@H](CCCCN)C(=O)N[C@H](C(=O)N[C@H](C(=O)N[C@@H](CC(=O)O)C(=O)O)[C@@H](C)O)[C@@H](C)CC)[C@@H](C)O)[C@@H](C)CC [Human GLP-2 (1–33)]	2.1 ± 0.8 %	69.1 ± 4.9 %	15.2 ± 1.0 %
